Laboratory results: patent US4803199A, “Pharmaceutically useful heterocyclic and carbocyclic acid esters and amides of alkylene bridged piperidines” (priority 1987, dated 1989)

How the values were obtained:
serotonin M receptor = biological target: T1, serotonin M receptor (Oryctolagus cuniculus, UniProt A0A5F9C9J3); assay: inhibition of the effect of serotonin on the isolated rabbit heart; details: rabbit heart test, antagonism of serotonin; read-out: pA2 value (converted)
T1 construct: isolated rabbit heart; from tissue; host or cells: isolated rabbit heart
T1 sequence (A0A5F9C9J3 1-494): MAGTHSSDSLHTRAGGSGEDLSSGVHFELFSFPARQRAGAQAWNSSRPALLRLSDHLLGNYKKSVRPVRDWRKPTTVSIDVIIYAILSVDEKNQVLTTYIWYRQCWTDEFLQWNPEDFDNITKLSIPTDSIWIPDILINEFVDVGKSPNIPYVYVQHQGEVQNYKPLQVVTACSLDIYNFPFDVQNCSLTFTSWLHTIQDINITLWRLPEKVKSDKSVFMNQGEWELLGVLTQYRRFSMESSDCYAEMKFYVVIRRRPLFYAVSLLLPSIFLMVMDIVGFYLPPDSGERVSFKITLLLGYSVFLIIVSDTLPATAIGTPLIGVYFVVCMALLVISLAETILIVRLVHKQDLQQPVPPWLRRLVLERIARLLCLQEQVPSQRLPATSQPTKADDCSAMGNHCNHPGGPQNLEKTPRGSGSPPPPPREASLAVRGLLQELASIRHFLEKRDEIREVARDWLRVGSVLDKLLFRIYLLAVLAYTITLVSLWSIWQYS
From the text: The serotonin M receptor antagonist activity is also indicated by inhibiting the effect of serotonin on the isolated rabbit heart according to the method of J. R. Fozard and A. T. Moborak Ali, European Journal of Pharmacology, (1978) 49, 109-112 at concentrations of 10^-11 to 10^-5 M of the compound of the invention. pD'2 or pA2 values may be calculated in the conventional manner.

[1] = system: M receptors for serotonin; details: isolated rabbit vagus nerve; cited from earlier work
M receptors = details: blister base on forearm of human volunteers; cited from earlier work

| Compound | Kb (serotonin M receptor) | block of the action of serotonin on C fibre action potential amplitude [1] | other results |
| --- | --- | --- | --- |
| CCN(CC)CCNC(=O)c1cc(Cl)c(N)cc1OC [metoclopramide] | 79.4 nM | – | – |
| CC[C@@H](CO)NC(=O)[C@@H]1C=C2c3cccc4c3c(cn4C)C[C@H]2N(C)C1 [methysergide] | – | not blocked | – |
| CCN(CC)C(=O)[C@@H]1C=C2c3cccc4[nH]cc(c34)C[C@H]2N(C)C1 [lysergic acid diethylamide] | – | – | inhibition of the algesic action of serotonin (M receptors): not inhibited |
| COc1cc(N(C)C)ccc1C(=O)O[C@@H]1C[C@H]2CC[C@@H](C1)N2Cc1ccccc1 [Example C-2] | 0.01 nM | – | – |
| CSc1ccc2c(c1)C(N1CCN(C)CC1)Cc1ccccc1S2 (stereo not drawn) [metitepine] | – | not blocked | – |
| CCN(CC)C(=O)[C@@H]1C=C2c3cccc4[nH]c(Br)c(c34)C[C@H]2N(C)C1 [BOL-148] | – | not blocked | – |
